# In patent publication US11117905B2, “Bisaryl heterocycles as NRF2 activators” (GLAXOSMITHKLINE INTELLECTUAL PROPERTY DEVELOPMENT LIMITED, priority 2016, dated 2021):
# Tested on: NQO1 specific enzyme activity in BEAS-2B cells (marker for NRF2 activation)
# Assay: BEAS-2B NQO1 MTT Assay
# Format: cell-based
# Settings: Homo sapiens, BEAS-2B, 48 h, NQO1 specific activity induction, 48 hours with compound
# Summary of the method: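 BEAS-2B cells were plated at 250,000 cells/mL and treated after overnight culture with compound for 48 h at 37° C, 5% CO2. NQO1 activity in crude lysates was read kinetically as MTT reduction at 570 nm over 30 min. pEC50 comes from ΔOD/min versus log concentration with a 3-parameter fit.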
row,SMILES,EC50 [nM]
1,"CC[C@H]1Cc2ccccc2S(=O)(=O)N(Cc2nc([C@@H](c3ccc4c(nnn4CC)c3C)C(C)(C)C(=O)Nc3cccnc3)sc2C)C1 [Example 42, (S)-3-(4-(((S)-4-Ethyl-1,1-dioxido-4,5-dihydrobenzo[f][1,2]thiazepin-2(3H)-yl)methyl)-5-methylthiazol-2-yl)-3-(1-ethyl-4-methyl-1H-benzo[d][1,2,3]triazol-5-yl)-2,2-dimethyl-N-(pyridin-3-yl)propanamide]",10 to 100
2,"CC[C@@H]1CN(Cc2cc([C@@H](c3ccc4c(nnn4CC)c3C)C(C)(C)C(=O)O)sc2Cl)S(=O)(=O)c2cccnc2O1 [Example 54, (S)-3-(5-Chloro-4-(((R)-4-ethyl-1,1-dioxido-3,4-dihydro-2H-pyrido[2,3-b][1,4,5]oxathiazepin-2-yl)methyl)thiophen-2-yl)-3-(1-ethyl-4-methyl-1H-benzo[d][1,2,3]triazol-5-yl)-2,2-dimethylpropanoic Acid]",< 1
3,"CC[C@@H]1CN(Cc2nc([C@@H](c3ccc4c(nnn4CC)c3C)C(C)(C)C(=O)Nc3cccnc3)sc2C)S(=O)(=O)c2cnccc2O1 [Example 28, (S)-3-(4-(((R)-4-Ethyl-1,1-dioxido-3,4-dihydro-2H-pyrido[4,3-b][1,4,5]oxathiazepin-2-yl)methyl)-5-methylthiazol-2-yl)-3-(1-ethyl-4-methyl-1H-benzo[d][1,2,3]triazol-5-yl)-2,2-dimethyl-N-(pyridin-3-yl)propanamide]",100 to 1000
4,"CCn1nnc2c(C)c([C@H](c3cc(CN4CC(=O)N(C)CC(C)(C)C4)c(C)s3)C(C)(C)C(=O)O)ccc21 [Example 15, (S)-3-(1-Ethyl-4-methyl-1H-benzo[d][1,2,3]triazol-5-yl)-2,2-dimethyl-3-(5-methyl-4-((4,6,6-trimethyl-3-oxo-1,4-diazepan-1-yl)methyl)thiophen-2-yl)propanoic Acid]",1 to 10
5,"CC[C@@H]1CN(Cc2nc([C@@H](c3ccc4c(nnn4CC)c3C)C(C)(C)C(=O)Nc3cccnc3)sc2C)S(=O)(=O)c2cccnc2O1 [Example 25, (S)-3-(4-(((R)-4-Ethyl-1,1-dioxido-3,4-dihydro-2H-pyrido[2,3-b][1,4,5]oxathiazepin-2-yl)methyl)-5-methylthiazol-2-yl)-3-(1-ethyl-4-methyl-1H-benzo[d][1,2,3]triazol-5-yl)-2,2-dimethyl-N-(pyridin-3-yl)propanamide]",100 to 1000
6,"CC[C@H]1Cc2ccc(C(F)(F)F)cc2S(=O)(=O)N(Cc2nc([C@@H](c3ccc4c(nnn4CC)c3C)C(C)(C)C(=O)O)sc2C)C1 [Example 49, (S)-3-(4-(((S)-4-Ethyl-1,1-dioxido-8-(trifluoromethyl)-4,5-dihydrobenzo[f][1,2]thiazepin-2(3H)-yl)methyl)-5-methylthiazol-2-yl)-3-(1-ethyl-4-methyl-1H-benzo[d][1,2,3]triazol-5-yl)-2,2-dimethylpropanoic Acid]",< 1
7,"CCn1nnc2c(C)c([C@H](c3cc(CN4C[C@@H](C)Cc5ccc(C(F)(F)F)cc5S4(=O)=O)n(C)n3)C(C)(C)C(=O)O)ccc21 [Example 50, (S)-3-(1-Ethyl-4-methyl-1H-benzo[d][1,2,3]triazol-5-yl)-2,2-dimethyl-3-(1-methyl-5-(((S)-4-methyl-1,1-dioxido-8-(trifluoromethyl)-4,5-dihydrobenzo[f][1,2]thiazepin-2(3H)-yl)methyl)-1H-pyrazol-3-yl)propanoic Acid]",1 to 10
8,"CCn1nnc2c(C)c([C@@H](c3cc(CN4C[C@@H](C)Cc5ncccc5S4(=O)=O)n(C)n3)C(C)(C)C(=O)O)ccc21 [Example 23, (R)-3-(1-Ethyl-4-methyl-1H-benzo[d][1,2,3]triazol-5-yl)-2,2-dimethyl-3-(1-methyl-5-(((S)-4-methyl-1,1-dioxido-4,5-dihydropyrido[2,3-f][1,2]thiazepin-2(3H)-yl)methyl)-1H-pyrazol-3-yl)propanoic Acid]",1000 to 10000
